From patent US20030050192A1, “Herbicidal composition” (priority 1998, published 2003)
Values joined by “and” are separate entries in the source; they are usually repeats but may differ in a detail not shown here. Equal values may be shown once.

Tests used:
Type in all cases: in vivo
Conditions in all cases: ten days after application
Setaria [1] = test: Example B2: post-emergent application of herbicide of formula I with/without safener, greenhouse, Setaria
Chenopodium [2] = test: Example B3: post-emergent application of herbicide of formula I with/without safener, greenhouse, Chenopodium
Raphanus [3] = test: Example B3: post-emergent application of herbicide of formula I with/without safener, greenhouse, Raphanus
Raphanus [4] = test: Example B2: post-emergent application of herbicide of formula I with/without safener, greenhouse, Raphanus
Barley = test: Example B2: post-emergent application of herbicide of formula I with/without safener, greenhouse, barley
Protocol: Post-emergent Applications of Mixtures of a Herbicide of Formula I with a Safener of Formulae IIa to IIq to barley
(§1) Under greenhouse conditions, barley is grown in plastic pots to the 2.5-leaf stage. In this stage, both the herbicide of formula I alone and the mixture of the herbicide with a safener of formulae IIa to IIq are applied to the test plants. The test substances (Formulation Examples F3 a) and b)) are applied as aqueous suspension with 500 l water/ha. Ten days after the application, the results are evaluated on a percent scale.

Emex [5] = test: Example B3: post-emergent application of herbicide of formula I with/without safener, greenhouse, Emex
Setaria [6] = test: Example B1: post-emergent application of herbicide of formula I with/without safener, greenhouse, Setaria
Emex [7] = test: Example B1: post-emergent application of herbicide of formula I with/without safener, greenhouse, Emex
Chenopodium [8] = test: Example B2: post-emergent application of herbicide of formula I with/without safener, greenhouse, Chenopodium
Durum wheat = test: Example B3: post-emergent application of herbicide of formula I with/without safener, greenhouse, durum wheat
Protocol: Post-emergent Applications of Mixtures of a Herbicide of Formula I with a Safener of Formulae IIa to IIq to Durum Wheat.
as §1, with “durum wheat” for “barley”

Chenopodium [9] = test: Example B1: post-emergent application of herbicide of formula I with/without safener, greenhouse, Chenopodium
Emex [10] = test: Example B2: post-emergent application of herbicide of formula I with/without safener, greenhouse, Emex
Setaria [11] = test: Example B3: post-emergent application of herbicide of formula I with/without safener, greenhouse, Setaria
Wheat = test: Example B1: post-emergent application of herbicide of formula I with/without safener, greenhouse, wheat
Protocol: Post-emergent Applications of Mixtures of a Herbicide of Formula I with a Safener of Formulae IIa to IIq to Cereals
as §1, with “wheat” for “barley”

Raphanus [12] = test: Example B1: post-emergent application of herbicide of formula I with/without safener, greenhouse, Raphanus
[13] = Herbicide of formula 1 alone 15 g/ha
[14] = Herbicide of formula 1 alone 60 g/ha
[15] = Herbicide of formula 1 alone 250 g/ha
[16] = Herbicide of formula 1 15 g/ha + safener 4 g/ha
[17] = Herbicide of formula 1 60 g/ha + safener 15 g/ha
[18] = Herbicide of formula 1 250 g/ha + safener 60 g/ha

COc1nn(C(=O)NS(=O)(=O)c2ccccc2OC(F)(F)F)c(=O)n1C [Herbicide of formula 1]
herbicidal effect on Setaria, percent scale (Setaria [1]; [13]): 70% | herbicidal effect on Setaria, percent scale (Setaria [1]; [14]): 80% | herbicidal effect on Chenopodium, percent scale (Chenopodium [2]; [15]): 90% | herbicidal effect on Raphanus, percent scale (Raphanus [3]; [15]): 90% | herbicidal effect on Raphanus, percent scale (Raphanus [4]; [13]): 80% | herbicidal effect on Raphanus, percent scale (Raphanus [4]; [14]): 80% | damage to Barley, percent scale (Barley; [13]): 30% | damage to Barley, percent scale (Barley; [14]): 40% | herbicidal effect on Emex, percent scale (Emex [5]; [15]): 90% | herbicidal effect on Setaria, percent scale (Setaria [6]; [13]): 70% | herbicidal effect on Setaria, percent scale (Setaria [6]; [14]): 80% | herbicidal effect on Emex, percent scale (Emex [7]; [13]): 80% | herbicidal effect on Emex, percent scale (Emex [7]; [14]): 90% | herbicidal effect on Chenopodium, percent scale (Chenopodium [8]; [13]): 90% | herbicidal effect on Chenopodium, percent scale (Chenopodium [8]; [14]): 90% | damage to Durum wheat, percent scale (Durum wheat; [15]): 30% | herbicidal effect on Chenopodium, percent scale (Chenopodium [9]; [13]): 90% and 80% | herbicidal effect on Chenopodium, percent scale (Chenopodium [9]; [14]): 90% | herbicidal effect on Emex, percent scale (Emex [10]; [13]): 80% | herbicidal effect on Emex, percent scale (Emex [10]; [14]): 90% | herbicidal effect on Setaria, percent scale (Setaria [11]; [15]): 80% | damage to Wheat, percent scale (Wheat; [13]): 10% | damage to Wheat, percent scale (Wheat; [14]): 20% | herbicidal effect on Raphanus, percent scale (Raphanus [12]; [13]): 80% | herbicidal effect on Raphanus, percent scale (Raphanus [12]; [14]): 80%

CCCCCC(C)OC(=O)COc1ccc(Cl)c2cccnc12 (stereo not shown) [Safener no. 1,01]
herbicidal effect on Setaria, percent scale (Setaria [6]; [16]): 70% | herbicidal effect on Emex, percent scale (Emex [7]; [16]): 90% | herbicidal effect on Chenopodium, percent scale (Chenopodium [9]; [16]): 90% | damage to Wheat, percent scale (Wheat; [16]): 5% | herbicidal effect on Raphanus, percent scale (Raphanus [12]; [16]): 80%

COC(=O)c1cc(-c2ccccc2)n(-c2ccccc2Cl)n1 [Safener no. 2,01]
herbicidal effect on Setaria, percent scale (Setaria [1]; [16]): 70% | herbicidal effect on Setaria, percent scale (Setaria [1]; [17]): 70% | herbicidal effect on Chenopodium, percent scale (Chenopodium [2]; [18]): 95% | herbicidal effect on Raphanus, percent scale (Raphanus [3]; [18]): 80% | herbicidal effect on Raphanus, percent scale (Raphanus [4]; [16]): 80% | herbicidal effect on Raphanus, percent scale (Raphanus [4]; [17]): 80% | damage to Barley, percent scale (Barley; [16]): 0% | damage to Barley, percent scale (Barley; [17]): 10% | herbicidal effect on Emex, percent scale (Emex [5]; [18]): 90% | herbicidal effect on Chenopodium, percent scale (Chenopodium [8]; [16]): 90% | herbicidal effect on Chenopodium, percent scale (Chenopodium [8]; [17]): 90% | damage to Durum wheat, percent scale (Durum wheat; [18]): 10% | herbicidal effect on Emex, percent scale (Emex [10]; [16]): 90% | herbicidal effect on Emex, percent scale (Emex [10]; [17]): 90% | herbicidal effect on Setaria, percent scale (Setaria [11]; [18]): 80%

CCOC(=O)c1nc(C(Cl)(Cl)Cl)n(-c2ccc(Cl)cc2Cl)n1 [Safener no. 2,05]
herbicidal effect on Setaria, percent scale (Setaria [1]; [17]): 80% | herbicidal effect on Raphanus, percent scale (Raphanus [4]; [17]): 90% | damage to Barley, percent scale (Barley; [17]): 30% | herbicidal effect on Chenopodium, percent scale (Chenopodium [8]; [17]): 90% | herbicidal effect on Emex, percent scale (Emex [10]; [17]): 90%

CCOC(=O)C1=NN(c2ccc(Cl)cc2Cl)C(C)(C(=O)OCC)C1 (stereo not shown) [Safener no. 3,03]
herbicidal effect on Setaria, percent scale (Setaria [1]; [17]): 80% | herbicidal effect on Raphanus, percent scale (Raphanus [4]; [17]): 80% | damage to Barley, percent scale (Barley; [17]): 30% | herbicidal effect on Setaria, percent scale (Setaria [6]; [16]): 70% | herbicidal effect on Emex, percent scale (Emex [7]; [16]): 90% | herbicidal effect on Chenopodium, percent scale (Chenopodium [8]; [17]): 80% | herbicidal effect on Chenopodium, percent scale (Chenopodium [9]; [16]): 90% | herbicidal effect on Emex, percent scale (Emex [10]; [17]): 90% | damage to Wheat, percent scale (Wheat; [16]): 5% | herbicidal effect on Raphanus, percent scale (Raphanus [12]; [16]): 80%

FC(F)(F)C(=NOCC1OCCO1)c1ccc(Cl)cc1 [Safener no. 6.02]
herbicidal effect on Setaria, percent scale (Setaria [1]; [17]): 80% | herbicidal effect on Raphanus, percent scale (Raphanus [4]; [17]): 80% | damage to Barley, percent scale (Barley; [17]): 30% | herbicidal effect on Setaria, percent scale (Setaria [6]; [17]): 80% | herbicidal effect on Emex, percent scale (Emex [7]; [17]): 90% | herbicidal effect on Chenopodium, percent scale (Chenopodium [8]; [17]): 80% | herbicidal effect on Chenopodium, percent scale (Chenopodium [9]; [17]): 80% | herbicidal effect on Emex, percent scale (Emex [10]; [17]): 90% | damage to Wheat, percent scale (Wheat; [17]): 10% | herbicidal effect on Raphanus, percent scale (Raphanus [12]; [17]): 80%
